Earlier results, collected in patent US20130302415A1, “Pharmaceutical Composition” (CIPLA Limited, priority 2010, published 2013).

Conditions: class II = low solubility, high permeability

In the case of `O=C1Nc2ccc(Cl)cc2[C@@](C#CC2CC2)(C(F)(F)F)O1` [Efavirenz, (S)-6-chloro-4-cyclopropylethynyl-4-trifluoromethyl-1,4-dihydro-2H-3,1-benzoxazin-2-one], the “Biopharmaceutical Classification System class” value is listed as “class II”.
